The text below walks through data of ChEMBL document CHEMBL1806384, “Identification of benzofuran-4,5-diones as novel and selective non-hydroxamic acid, non-peptidomimetic based inhibitors of human peptide deformylase” (Bioorg Med Chem Lett, 2011).

Assay [1] concerns the target T1, Peptide deformylase (Escherichia coli, UniProt Q9JN24).
T1 sequence (Q9JN24 whole entry): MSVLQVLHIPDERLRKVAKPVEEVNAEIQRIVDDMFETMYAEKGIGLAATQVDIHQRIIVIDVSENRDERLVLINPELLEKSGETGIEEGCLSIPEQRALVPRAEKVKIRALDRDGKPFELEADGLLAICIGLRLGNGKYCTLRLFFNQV
Put plainly: Inhibition of Escherichia coli peptide deformylase after 1 hr by fluorescence polarization based competition assay. Background: In fluorescence polarisation assays a small probe gives low polarisation when free and higher when bound to something large.

Assay [2] has as its target T2, Peptide deformylase, mitochondrial (Homo sapiens) (UniProt Q9HBH1).
T2 sequence (whole entry): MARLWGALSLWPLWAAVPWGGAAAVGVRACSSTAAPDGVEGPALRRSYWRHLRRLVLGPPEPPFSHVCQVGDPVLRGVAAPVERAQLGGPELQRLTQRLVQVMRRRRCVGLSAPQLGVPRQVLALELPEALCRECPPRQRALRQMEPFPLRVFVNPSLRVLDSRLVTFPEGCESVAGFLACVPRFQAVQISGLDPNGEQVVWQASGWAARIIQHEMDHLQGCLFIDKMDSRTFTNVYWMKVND
The assay can be described thus: Inhibition of human peptide deformylase at 100 uM after 1 hr by fluorescence polarization based competition assay.

Assay [3] has as its target T3, Peptide deformylase (Escherichia coli) (UniProt Q9JN24).
T3 sequence (whole entry): T1 sequence (Q9JN24 whole entry)
The assay can be described thus: Inhibition of Escherichia coli peptide deformylase at 100 uM after 1 hr by fluorescence polarization based competition assay.

Assay [4] has as its target T4, Aminopeptidase N (Sus scrofa) (UniProt P15145).
T4 sequence (whole entry): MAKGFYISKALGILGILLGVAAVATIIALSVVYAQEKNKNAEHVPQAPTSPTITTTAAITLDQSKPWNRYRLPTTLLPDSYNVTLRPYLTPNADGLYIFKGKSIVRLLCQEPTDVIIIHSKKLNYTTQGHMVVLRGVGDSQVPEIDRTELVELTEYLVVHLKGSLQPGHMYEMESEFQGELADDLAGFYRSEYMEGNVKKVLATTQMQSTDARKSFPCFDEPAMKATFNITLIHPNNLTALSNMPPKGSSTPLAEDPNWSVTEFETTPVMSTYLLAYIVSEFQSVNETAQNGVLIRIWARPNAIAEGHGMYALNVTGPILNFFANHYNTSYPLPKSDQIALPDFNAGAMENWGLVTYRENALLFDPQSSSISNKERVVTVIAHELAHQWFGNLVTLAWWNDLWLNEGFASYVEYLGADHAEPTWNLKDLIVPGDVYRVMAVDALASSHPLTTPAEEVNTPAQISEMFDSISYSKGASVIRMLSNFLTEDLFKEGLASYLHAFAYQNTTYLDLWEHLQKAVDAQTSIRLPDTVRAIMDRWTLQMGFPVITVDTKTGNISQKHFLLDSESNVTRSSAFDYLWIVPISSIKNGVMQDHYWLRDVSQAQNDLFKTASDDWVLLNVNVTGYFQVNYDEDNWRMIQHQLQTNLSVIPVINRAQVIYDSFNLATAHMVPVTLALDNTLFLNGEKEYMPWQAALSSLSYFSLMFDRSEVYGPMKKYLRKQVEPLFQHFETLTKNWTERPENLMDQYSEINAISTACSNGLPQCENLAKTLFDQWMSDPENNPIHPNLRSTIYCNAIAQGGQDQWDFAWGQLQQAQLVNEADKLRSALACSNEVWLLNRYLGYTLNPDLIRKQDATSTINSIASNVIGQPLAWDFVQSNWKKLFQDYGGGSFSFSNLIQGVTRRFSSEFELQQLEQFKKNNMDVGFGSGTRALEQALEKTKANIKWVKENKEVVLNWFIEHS
Put plainly: Inhibition of porcine kidney microsomal aminopeptidase N at 100 uM after 1 hr by fluorescence polarization based competition assay.

Assay [5] addresses T5, Interstitial collagenase (Homo sapiens) (UniProt P03956).
T5 sequence (whole entry): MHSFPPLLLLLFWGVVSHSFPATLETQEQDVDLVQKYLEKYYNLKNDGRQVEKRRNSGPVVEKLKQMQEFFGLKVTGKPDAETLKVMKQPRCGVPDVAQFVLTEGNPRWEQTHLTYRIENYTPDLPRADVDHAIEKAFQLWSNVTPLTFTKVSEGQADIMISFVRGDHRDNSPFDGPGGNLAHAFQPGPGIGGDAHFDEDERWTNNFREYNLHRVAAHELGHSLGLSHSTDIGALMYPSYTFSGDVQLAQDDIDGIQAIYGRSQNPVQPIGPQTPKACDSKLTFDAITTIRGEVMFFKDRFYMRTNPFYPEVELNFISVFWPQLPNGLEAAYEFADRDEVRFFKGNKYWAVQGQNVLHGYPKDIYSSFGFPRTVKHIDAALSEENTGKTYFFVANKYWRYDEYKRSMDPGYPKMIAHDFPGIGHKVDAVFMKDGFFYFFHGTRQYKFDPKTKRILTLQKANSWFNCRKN
The assay can be described thus: Inhibition of human recombinant MMP1 at 100 uM after 1 hr by fluorescence polarization based competition assay.

Assay [6] relates to Jurkat. The assay can be described thus: Cytotoxicity against human Jurkat cells. Type of assay: functional, cell-based.
For assay [7], the system named is MOLT-3. The assay can be described thus: Cytotoxicity against human MOLT3 cells. It counts as functional, cell-based.
Assay [8] is described as follows: Cytotoxicity against human ALL3 cells. Type of assay: functional, cell-based.
Assay [9] can be described thus: Cytotoxicity against human CWR22 cells. Type of assay: functional, cell-based.
Assay [10] in a line: Cytotoxicity against human Meso47 cells. Type of assay: functional, cell-based.
The target of assay [11] is T6, Peptide deformylase, mitochondrial (Homo sapiens, UniProt Q9HBH1).
T6 sequence (Q9HBH1 whole entry): T2 sequence (whole entry)
Put plainly: Inhibition of human peptide deformylase after 1 hr by fluorescence polarization based competition assay.

Assay [12] relates to HL-60. Put plainly: Cytotoxicity against human HL60 cells. It counts as functional, cell-based.
For assay [13], the system named is HL-60. Put plainly: Cytotoxicity against human vincristine-resistant HL60 cells. Type of assay: functional, cell-based.
The test system of assay [14] is HEK293. The assay can be described thus: Cytotoxicity against human HEK293 cells. Type of assay: cell-based.
Assay [15] deals with Y79. The assay can be described thus: Cytotoxicity against human Y79 cells. It counts as functional, cell-based.

As a reminder, the IC50 is the point on the concentration scale where inhibition reaches its midpoint. A lower IC50 goes with higher potency. As a reminder, the inhibition is the share of the control response that was lost under treatment. Regarding `O=C1C=Cc2occ(C(=O)c3ccccc3)c2C1=O`, the IC50 in assay [1] was over 100 µM; in assay [6], 8.1 µM; in assay [7], 7.3 µM; in [8], 22 µM; in assay [9] it was 30 µM; in assay [10] it was 63 µM. The inhibition in assay [2] was determined as 100%; in [3], 32%; in [4], 5%; in assay [5], 0%.

Turning to `COc1ccc(C(=O)c2coc3c2C(=O)C(=O)C=C3)cc1`, the IC50 in assay [11] was 34 µM; in [1] it was over 100 µM; in [12] it was 17 µM; in assay [13], 27 µM; in [6], 8.9 µM; in [7], 9.1 µM. Further, the IC50 was 29 µM in assay [8]; 35 µM in assay [9]; 21 µM in [14]; 31 µM in assay [15]; 100 µM in assay [10]. In addition, the inhibition was found to be 100% in assay [2], 24% in assay [3], 4% in assay [4] and 6% in assay [5].

`COc1ccc(C(=O)c2coc3c2C(=O)C(=O)C(Br)=C3Br)cc1`: the concentration for half-maximal inhibition (IC50) in assay [11] is 65 µM; in assay [1], over 100 µM; in [12], 53 µM; in [13], 100 µM; in assay [6], 55 µM; in assay [7], 40 µM. Moreover, the half-inhibitory concentration (IC50) in assay [8] is 70 µM; in assay [9] it was 70 µM; in [14], 100 µM; in [10] it was 100 µM. The inhibition was 100% in [2], 22% in [3], 41% in [4] and 23% in assay [5].

As for `COc1ccc(C(=O)c2coc3c2C(=O)C(=O)C=C3Br)cc1`, the half-inhibitory concentration (IC50) was 15 µM in [11]; over 100 µM in assay [1]; 10 µM in [12]; 38 µM in [13]; 12 µM in [6]; 11 µM in assay [7]. The IC50 in [8] came to 35 µM; in [9] it was 46 µM; in [15], 63 µM; in assay [10], 100 µM. The inhibition came to 100% in assay [2], 26% in assay [3], 64% in assay [4] and 8% in assay [5].

With `COc1cc(C(=O)c2coc3c2C(=O)C(=O)C(Cl)=C3Cl)cc(OC)c1OC`, the IC50 in assay [11] is 25 µM; in assay [1] it was over 100 µM; in [12] it was 36 µM; in [13], 55 µM; in [6], 5.9 µM; in [7] it was 7 µM. Further, the IC50 in assay [8] was found to be 49 µM; in [10], 100 µM. Further, the inhibition in assay [2] was determined as 100%; in [3], 27%; in assay [4] it was 50%; in assay [5] it was 32%.

`COc1ccc(C(=O)c2coc3c2C(=O)C(=O)C(Cl)=C3Cl)cc1OC`: the IC50 in [11] was found to be 6.1 µM; in assay [13], 100 µM; in [14] it was 100 µM. Further, the inhibition is 100% in assay [2], 63% in [3], 99% in [4] and 46% in assay [5].

Take `COc1ccc(C(=O)c2coc3c(Br)cc(O)c(Br)c23)cc1`: the inhibition in assay [2], in assay [3], in assay [4] and in assay [5] was 0% in each case. Further, the IC50 stood at 9 µM in [12]; 40 µM in assay [13]; 8 µM in assay [6]; 10 µM in assay [7]; 68 µM in [8]; 57 µM in [9]. In addition, the figures for the IC50 in assay [14], in assay [15] and in [10] were 10 µM, 64 µM and 100 µM, respectively.

In the case of `COc1ccc(C(=O)c2coc3c(Cl)c(Cl)c(O)cc23)cc1OC`, the inhibition in assay [2], in assay [3], in [4] and in assay [5] was 0% each time. For the same compound, the IC50 in assay [12], in assay [13], in assay [6], in assay [7], in assay [8] and in assay [9] was 100 µM in each case. Moreover, the concentration for half-maximal inhibition (IC50) in assay [14], in assay [15] and in assay [10] was 100 µM throughout.

Regarding `COc1ccc(C(=O)c2coc3c(Br)c(Br)c(O)cc23)cc1OC`, the inhibition in assay [2], in assay [3], in [4] and in [5] was 0% in each case. For the same compound, the IC50 was found to be 57 µM in assay [12]; 100 µM in assay [13]; 37 µM in [6]; 52 µM in assay [7]; 100 µM in assay [8]; 100 µM in assay [9]. In addition, the IC50 in [14] came to 52 µM; in assay [15] it was 100 µM; in [10], 100 µM.

`COc1ccc(C(=O)c2coc3c2C(=O)C(=O)C=C3Cl)cc1`: the IC50 was 16 µM in [11]; over 100 µM in [1]; 17 µM in assay [12]; 13 µM in assay [6]; 11 µM in assay [7]; 47 µM in assay [8]. The 50% inhibitory concentration (IC50) in assay [9] was 59 µM; in [14] it was 40 µM; in assay [15], 74 µM; in assay [10] it was 100 µM. Further, the inhibition was 100% in [2], 13% in assay [3], 68% in [4] and 10% in [5].

For `COc1ccc(C(=O)c2coc3c2C(=O)C(=O)C(Cl)=C3)cc1`, the IC50 in assay [1] is over 100 µM; in assay [12], 32 µM; in assay [6], 57 µM; in assay [7] it was 47 µM; in assay [8], 34 µM; in assay [14], 100 µM. Moreover, the inhibition in assay [2] was 100%; in [3], 11%; in assay [4], 54%; in assay [5], 11%.

For the compound `COc1ccc(C(=O)c2coc3cc(Br)c(O)cc23)cc1`, the inhibition was 0% in [2], 0% in [3], 0% in assay [4] and 10% in assay [5]. Moreover, the IC50 in assay [12] is 100 µM; in [13], 100 µM; in [6] it was 100 µM; in assay [7] it was 72 µM; in assay [8], 100 µM; in assay [9], 47 µM. In addition, the results for the IC50 in assay [14], in assay [15] and in assay [10] were 72 µM, 100 µM and 100 µM, respectively.
